Measured values taken from article PMC8476055, “Synthesis and Biological Activity of Triterpene–Coumarin Conjugates” (Journal of Natural Products, 2021).
“And” between values parts separate entries of the source, which are not always exact repeats. Equal entries are not always repeated.

What was measured:
Hep G2 cells = experiment: Annexin V-FITC/PI flow cytometry (apoptosis), Hep G2; type: cell-based, human; settings: Hep G2, 72 h at IC50 concentration, mean ± S.E.M.
Method: (§1) In consideration of the cytotoxic results of these triterpene conjugates with the three cell lines assayed, three MA–diamine–coumarin conjugates (1, 4, and 7) and the MA–coumarin conjugate 10 were selected for the following cytometry studies on the three cancer cell lines. Thus, the apoptotic determination assays were performed through double staining with Annexin V (An-V), conjugated fluorescein isothiocyanate (FITC), and propidium iodide (PI). […] The values of percentage of total apoptosis were expressed as means ± SEM of at least two duplicate experiments (Figure 1).
(§2) Apoptosis was assessed by flow cytometry using a FACScan (fluorescence-activated cell sorter) flow cytometer (Coulter Corporation, Hialeah, FL, USA). For these assays, 5 × 10^4 B16–F10, 6 × 10^4 HT29 cells, and 15 × 10^4 Hep G2 cells were placed in 24-well plates with 1.5 mL of medium and incubated for 24 h. Subsequently, the cells were treated with the selected compounds in triplicate for 72 h at their corresponding IC50 concentrations. The cells were collected and resuspended in a binding buffer (10 mM HEPES/NaOH, pH 7.4, 140 mM NaCl, 2.5 mM CaCl2). Annexin V-FITC conjugate (1 mg/mL) was then added and incubated for 15 min at room temperature in darkness. Just before the analysis by flow cytometry, cells were stained with 20 μL of 1 mg/mL PI solution. In each experiment, approximately 10 × 10^3 cells were analyzed, and the experiment was duplicated twice.

B16–F10 cells [1] = experiment: Annexin V-FITC/PI flow cytometry (apoptosis), B16–F10; type: cell-based, murine; settings: B16-F10, 72 h at IC50 concentration, mean ± S.E.M.
Method: as §1, §2

[2] = test system: HT29 human colon adenocarcinoma cells; experiment: MTT cell proliferation assay, HT29 cells; type: cell-based; settings: HT-29, 72 h treatment, untreated control = 100% viability, read-out: IC50, growth inhibition of HT29 cells
Method: (§3) These studies were performed using a 3-(4,5-dimethylthiazol-2-yl)-2,5-diphenyltetrazolium bromide (MTT) assay, with increasing concentration levels of each compound (0–200 μg/mL). Cell viability was determined after treatment for 72 h, by absorption of a formazan dye.
(§4) […] ATTC HTB-38), Hep G2 human hepatocyte carcinoma cells (ECACC 85011430), nontumor human epithelial lung fibroblast cells HPF (ScienCell catalog (cat.) no. 3300), nontumor rat ileum cells IEC-18 (ECACC no. 88011801), and nontumor human embryo liver cells (ECACC 89121403) were cultured in DMEM medium supplemented with 2 mM glutamine, 10% heat-inactivated fetal bovine serum (FCS), 10.000 units/mL penicillin, and […]. These cells were incubated at 37 °C in an atmosphere of 5% CO2 and 95% humidity. The culture media were changed every 48 h, and the confluent cultures were separated with a trypsin solution (0.25% EDTA). Subconfluent monolayer cells were used in all experiments. All cell lines used were provided by the cell bank of the University of Granada (Spain).
(§5) The effect of the synthesized compounds on the viability of tumor cells was assessed using an MTT assay, based on the ability of living cells to cleave the tetrazolium ring, thus producing formazan, which absorbs at 570 nm. […] For an evaluation of the cytotoxic effects of these compounds, the cells were seeded in 96-well plates at an initial density of 5 × 10^3 B16–F10 cells, 6 × 10^3 HT29 cells, 15 × 10^3 Hep G2 cells, 8 × 10^3 HPF cells, 15 × 10^3 IEC-18 cells, and 11 × 10^3 WRL68 cells, per well. After incubation for 24 h, the cells were treated with the synthesized compounds in triplicate, at different concentrations (0–200 μg/mL), and incubated for 72 h. Thereafter, 100 μL of MTT solution (0.5 mg/mL) were added to each well. After 2 h of incubation, the cells were washed twice with phosphate buffered saline (PBS), and the formazan was resuspended in 100 μL of DMSO. Relative cell viability, with respect to untreated control cells, was measured by absorbance at 550 nm on an ELISA plate reader (Tecan Sunrise MR20-301, TECAN, Austria). […] These experiments were measured and compared to the control after 72 h of treatment.

B16–F10 cells [3] = experiment: Mitochondrial-membrane potential (Rh123) flow cytometry, B16–F10; type: cell-based, murine; settings: B16–F10, 72 h at IC50 concentration
Method: The study of the loss of the mitochondrial-membrane potential (MMP) of tumor cells, when treated with drugs, can provide information on the activation mechanism of apoptosis. This activation can occur extrinsically when MMP is not altered, and intrinsically when a loss of this potential is caused by mitochondrial disruption. […] The values of percentage of cell population were expressed as means ± SEM of at least two experiments in duplicate. Changes in MMP were analyzed by monitoring cell fluorescence after staining with rhodamine 123 (Rh123).
The electrochemical gradient across the mitochondrial membrane was examined by analytical flow cytometry, using dihydrorhodamine (DHR), which in contact with living cells, oxidized to form highly fluorescent rhodamine 123 (Rh123). The fluorescence emitted can be monitored by fluorescence spectroscopy using excitation and emission wavelengths of 500 and 536 nm, respectively. […] Following treatment, the culture medium was renewed with fresh medium by adding 0.5 mL of DHR, for a final concentration of […]. Cells were incubated for 1 h at 37 °C in an atmosphere of 5% CO2 and 95% humidity and subsequently washed and resuspended in PBS. The fluorescence intensity was measured using a FACScan flow cytometer (fluorescence-activated cell sorter). The experiments were performed three times with two replicates per assay.

[4] = test system: B16–F10 murine melanoma cells; experiment: MTT cell proliferation assay, B16–F10 cells; type: cell-based; settings: Mus musculus, 72 h treatment, untreated control = 100% viability, read-out: IC50, growth inhibition of B16–F10 cells
Method: as §3, §4, §5

HT29 cells = experiment: Annexin V-FITC/PI flow cytometry (apoptosis), HT29; type: cell-based, human; settings: HT29, 72 h at IC50 concentration, mean ± S.E.M.
Method: as §1, §2

melting point [°C]	IC50 [2] [µM]	IC50 [4] [µM]	Structure (SMILES)	Early Apoptosis (Hep G2 cells) [%]	Late Apoptosis (Hep G2 cells) [%]	Necrosis (Hep G2 cells) [%]	Total Apoptosis (Hep G2 cells)	Viable Cells (Hep G2 cells) [%]	Early Apoptosis (B16–F10 cells [1]) [%]	Late Apoptosis (B16–F10 cells [1]) [%]	Necrosis (B16–F10 cells [1]) [%]	Total Apoptosis (B16–F10 cells [1])	Viable Cells (B16–F10 cells [1]) [%]	Rh123 staining (mitochondrial-membrane potential) (B16–F10 cells [3])	Early Apoptosis (HT29 cells) [%]	Late Apoptosis (HT29 cells) [%]	Necrosis (HT29 cells) [%]	Total Apoptosis (HT29 cells)	Viable Cells (HT29 cells) [%]
69 to 71	> 10	> 10	CC1(C)CC[C@]2(C(=O)NCCCNC(=O)c3cc4ccccc4oc3=O)CC[C@]3(C)C(=CC[C@@H]4[C@@]5(C)C[C@@H](O)[C@H](O)C(C)(C)[C@@H]5CC[C@]43C)[C@@H]2C1 [Compound 1, 2α,3β-Dihydroxy-N-(3′-(2″-oxo-2″H-chromene-3″-carboxamido)propyl)olean-12-en-28-amide]	50.1 ± 4.5	19.4 ± 4.8	1.8 ± 0.4	69.5 ± 2.3%	28.8 ± 2.8	48.5 ± 2.8	19.4 ± 4.2	1.7 ± 0.4	67.9 ± 1.5%	30.5 ± 1.9	positive Rh123 staining	10.8 ± 0.6	29.2 ± 0.5	3.7 ± 0.9	40.0 ± 0.5%	56.3 ± 1.3
143 to 145	> 10	> 10	CC1(C)CC[C@]2(C(=O)NCCCNC(=O)Cc3cc(=O)oc4cc(O)ccc34)CC[C@]3(C)C(=CC[C@@H]4[C@@]5(C)C[C@@H](O)[C@H](O)C(C)(C)[C@@H]5CC[C@]43C)[C@@H]2C1 [Compound 4, 2α,3β-Dihydroxy-N-(3′-(2″-(7‴-hydroxy-2‴-oxo-2‴H-chromen-4‴-yl)acetamido)propyl)olean-12-en-28-amide]	48.5 ± 3.8	20.1 ± 5.3	1.9 ± 0.2	68.5 ± 1.6%	29.7 ± 1.3	74.9 ± 2.6	10.5 ± 1.4	0.7 ± 0.0	85.4 ± 3.0% and 85%	14.0 ± 3.9	positive Rh123 staining	32.0 ± 2.3	20.5 ± 3.0	6.2 ± 0.9	52.4 ± 3.0%	41.4 ± 3.8
123 to 125	10.9 ± 0.5	10.4 ± 0.2	CC1(C)CC[C@]2(C(=O)NCCCNC(=O)/C=C/c3ccc(O)cc3)CC[C@]3(C)C(=CC[C@@H]4[C@@]5(C)C[C@@H](O)[C@H](O)C(C)(C)[C@@H]5CC[C@]43C)[C@@H]2C1 [Compound 7, 2α,3β-Dihydroxy-N-(3′-((E)-3″-(4‴-hydroxyphenyl)acrylamido)propyl)olean-12-en-28-amide]	57.4 ± 4.3	18.6 ± 3.2	2.2 ± 0.6	75.9 ± 2.0% and 76%	21.9 ± 1.3	39.0 ± 4.1	18.6 ± 0.1	3.1 ± 0.6	57.6 ± 3.2%	39.3 ± 3.5	positive Rh123 staining	16.2 ± 3.6	29.4 ± 1.6	1.5 ± 0.4	45.6 ± 2.0%	52.9 ± 2.0
200 to 202	1.1 ± 0.1	0.6	CC1(C)CC[C@]2(C(=O)O)CC[C@]3(C)C(=CC[C@@H]4[C@@]5(C)C[C@@H](OC(=O)c6cc7ccccc7oc6=O)[C@H](OC(=O)c6cc7ccccc7oc6=O)C(C)(C)[C@@H]5CC[C@]43C)[C@@H]2C1 [Compound 10]	19.2 ± 4.9	21.6 ± 3.2	4.2 ± 1.1	40.8 ± 3.2%	55.0 ± 1.4	18.1 ± 3.0	22.9 ± 3.8	5.7 ± 0.8	41.0 ± 1.7%	53.4 ± 2.9	positive Rh123 staining	23.8 ± 4.2	34.1 ± 4.9	6.5 ± 0.0	57.9 ± 1.6% and 58%	35.7 ± 2.3
